Measured values published in ChEMBL document CHEMBL1140146, “Cycloartane glycosides from Sutherlandia frutescens” (J Nat Prod, 2008).
Active and inactive are the calls of the source.

Tests used:
Assay type in all cases: functional, organism-based
[1] = test system: Staphylococcus aureus; experiment: Antimicrobial activity against methicillin-resistant Staphylococcus aureus at 20 ug/mL by microplate assay
[2] = test system: Pseudomonas aeruginosa; experiment: Antimicrobial activity against Pseudomonas aeruginosa at 20 ug/mL
[3] = test system: Mycobacterium intracellulare; experiment: Antimicrobial activity against Mycobacterium intracellular at 20 ug/mL
[4] = test system: Plasmodium falciparum; experiment: Antimalarial activity against Plasmodium falciparum W2 at 40 ug/mL
[5] = test system: Staphylococcus aureus; experiment: Antimicrobial activity against Staphylococcus aureus at 20 ug/mL by microplate assay
[6] = test system: Candida albicans; experiment: Antimicrobial activity against Candida albicans at 20 ug/mL by NCCLS method
[7] = test system: Aspergillus fumigatus; experiment: Antimicrobial activity against Aspergillus fumigatus at 20 ug/mL
[8] = test system: Plasmodium falciparum; experiment: Antimalarial activity against Plasmodium falciparum D6 at 40 ug/mL
[9] = test system: Cryptococcus neoformans; experiment: Antimicrobial activity against Cryptococcus neoformans at 20 ug/mL by microplate assay

Measured: Activity

C[C@H](CC[C@H](O)C(C)(C)O[C@@H]1O[C@H](CO)[C@@H](O)[C@H](O)[C@H]1O)[C@H]1CC[C@@]2(C)[C@H]3C(=CC[C@]12C)C[C@]12O[C@H]3C[C@H]1C(C)(C)[C@H](O)C[C@@H]2O
inactive: [1] | [2] | [3] | [4] | [5] | [6] | [7] | [8] | [9]

C[C@H](CC[C@H](O)C(C)(C)O[C@@H]1O[C@H](CO)[C@@H](O)[C@H](O)[C@H]1O)[C@H]1CC[C@@]2(C)[C@@H]3[C@@H](O)C[C@H]4C(C)(C)[C@H](O)CC(=O)[C@@]45C[C@@]35CC[C@]12C
inactive: [1] | [2] | [3] | [4] | [5] | [6] | [7] | [8] | [9]

C[C@H](CC[C@H](O)C(C)(C)O[C@@H]1O[C@H](CO)[C@@H](O)[C@H](O)[C@H]1O)[C@H]1CC[C@@]2(C)[C@@H]3CC[C@H]4C(C)(C)[C@H](O)CC(=O)[C@@]45C[C@@]35C(=O)C[C@]12C
inactive: [1] | [2] | [3] | [4] | [5] | [6] | [7] | [8] | [9]

C[C@H](CC[C@H](O)C(C)(C)O[C@@H]1O[C@H](CO)[C@@H](O)[C@H](O)[C@H]1O)[C@H]1CC[C@@]2(C)[C@@H]3[C@@H](O)C[C@H]4C(C)(C)C=CC(=O)[C@@]45C[C@@]35CC[C@]12C
inactive: [1] | [2] | [3] | [4] | [5] | [6] | [7] | [8] | [9]
